Read-outs that look alike come from different tables or passages of the source.
Columns and labels:
SUDHL10 [1] = experiment: Induction of cytotoxicity (CellTiter-Glo, 5 h), SUDHL10; conditions: Homo sapiens, SU-DHL10, 5 h, read-out: Cytotox SUDHL10 [M] (median), SUDHL10 cells, cytotoxicity induction, CellTiter-Glo, 5 h incubation, median
SUDHL5 [2] = experiment: Induction of caspase-3/7 activity (Caspase-Glo 3/7), SUDHL5; format: cell-based; conditions: Homo sapiens, SU-DHL-5, 3 h, caspase-3/7 induction, SUDHL5 cells, 3 h treatment; median
Procedure, shortened: (§1)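 DLBCL lines SUDHL5 and SUDHL10 treated with compounds for 3 h at 37 °C; caspase-3/7 activity read by Caspase-Glo 3/7 luminescence. Medium-only background subtracted; EC50 fitted with bottom fixed at 1 and top fixed at the reference compound's maximal induction.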

A2780 = experiment: Anti-proliferative effect (CellTiter-Glo, 72 h), A2780; format: cell-based; conditions: A2780 cells, median, read-out: IC50 antiproliferation assay A2780 [M] (median)
Procedure, shortened: (§2)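 Cells plated and incubated with compounds for 72 h at 37 °C, with a parallel day 0 reference plate for time-zero signal. Viability read by CellTiter-Glo luminescence after 10 min, measured identically on the day 0 and 72 h plates.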

SUDHL5 [3] = experiment: Anti-proliferative effect (CellTiter-Glo, 72 h), SUDHL5; format: cell-based; conditions: Homo sapiens, SU-DHL-5, 72 h, SUDHL5 cells, antiproliferation, 72 h incubation, median, read-out: Antiproli SUDHL5 [M] (median)
Procedure, shortened: as §2

SUDHL5 [4] = experiment: Induction of cytotoxicity (CellTiter-Glo, 5 h), SUDHL5; conditions: Homo sapiens, SU-DHL-5, 5 h, read-out: Cytotox SUDHL5 [M] (median), SUDHL5 cells, cytotoxicity induction, CellTiter-Glo, 5 h incubation, median
SUDHL10 [5] = experiment: Induction of caspase-3/7 activity (Caspase-Glo 3/7), SUDHL10; format: cell-based; conditions: Homo sapiens, SU-DHL10, 3 h, caspase-3/7 induction, SUDHL10 cells, 3 h treatment; median
Procedure, shortened: as §1

SUDHL10 [6] = experiment: Anti-proliferative effect (CellTiter-Glo, 72 h), SUDHL10; format: cell-based; conditions: Homo sapiens, SU-DHL10, 72 h, SUDHL10 cells, antiproliferation, 72 h incubation, median, read-out: Antiproli SUDHL10 [M] (median)
Description: Assessment of the Anti-Proliferative Effect of Compounds in Different Cell Lines
The impact of compounds on the proliferation of different cell lines was assessed using the CellTiter-Glo® Luminescent Cell Viability reagent from Promega (G7573). Of note, SUDHL10 and SUDHL5 (DLBCL), NCI-H929 (Multiple Myeloma), A2780 (ovarian carcinoma) as well as MV-4-11(AML) cells are sensitive to MCL-1 inhibition.
In parallel, cells were plated in a reference (day 0) plate for time zero determination.
Rim wells were excluded. The cells were incubated for 72 h hours in a humidified incubator at 37° C. The day 0 plate was measured by adding 30 μl/well of CTG solution (CellTiter-Glo® Luminescent Cell Viability reagent, Promega G7573) to time zero wells in the reference plate followed by a 10 minutes incubation and luminescence reading at 0.1 ms, using the PHERAstar FS microplate reader (BMG Labtech).
After 72 h incubation, the treated plates were measured in the same way as the day 0 plate mentioned above.

MCL-1 = MCL-1 (Homo sapiens, UniProt Q07820); experiment: Protein-protein interaction assay MCL-1/Noxa BH3 peptide (MCL-1 assay), TR-FRET; format: binding; conditions: MBP-MCL-1 / Noxa BH3-derived peptide, median
Procedure, shortened: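 IC50 came from a 4-parameter fit of the normalized 665/620 nm TR-FRET ratio (anti-MBP Eu-cryptate/streptavidin-XL665). Compounds (0.1 nM–20 μM, duplicates) were preincubated 10 min at 22 °C with 1 nM MBP-MCL-1 in pH 7 Tris/NaCl/KF buffer, then read after 1 h at 22 °C plus overnight at 4 °C.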

Chain of MCL-1 (Q07820 whole entry): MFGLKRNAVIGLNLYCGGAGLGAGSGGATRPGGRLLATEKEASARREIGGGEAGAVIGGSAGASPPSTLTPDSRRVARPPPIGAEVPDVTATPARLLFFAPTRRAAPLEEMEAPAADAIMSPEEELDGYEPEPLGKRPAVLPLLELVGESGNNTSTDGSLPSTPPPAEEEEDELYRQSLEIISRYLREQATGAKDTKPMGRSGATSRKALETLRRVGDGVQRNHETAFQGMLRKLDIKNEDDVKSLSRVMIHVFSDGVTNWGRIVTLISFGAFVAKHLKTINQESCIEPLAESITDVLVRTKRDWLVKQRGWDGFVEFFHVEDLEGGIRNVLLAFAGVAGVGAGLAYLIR

SMILES	IC50 (SUDHL10 [1])	EC50 (SUDHL5 [2])	IC50 (A2780)	IC50 (A2780; Homo sapiens, A2780, 72 h)	IC50 (SUDHL5 [3])	IC50 (SUDHL5 [4])	EC50 (SUDHL10 [5])	IC50 (SUDHL10 [6])	IC50 (MCL-1)
Cc1nn(C)c2c1-c1cccc3c(CCCOc4cccc5ccccc45)c(C(=O)O)n(c13)CCCOC2 (racemic) [Example 043, (rac)-9,11-dimethyl-1-[3-(naphthalen-1-yloxy)propyl]-5,6,8,9-tetrahydro-4H-pyrazolo[4′,3′:8,9][(1,5]oxazecino[7,6,5-hi]indole-2-carboxylic Acid]	> 3.3e-05 M	18.7 µM	2.6e-05 M	> 3.3e-05 M	1.05e-05 M	1.79e-05 M	> 33 µM	4.93e-06 M	12.7 nM
Cc1nn(C)c2c1-c1cccc3c(CCCOc4cccc5cc(F)ccc45)c(C(=O)O)n(c13)CCCOC2 (racemic) [Example 046, (rac)-1-{3-[(6-fluoronaphthalen-1-yl)oxy]propyl}-9,11-dimethyl-5,6,8,9-tetrahydro-4H-pyrazolo[4′,3′:8,9][1,5]oxazecino[7,6,5-hi]indole-2-carboxylic Acid]	2.33e-05 M	5.7 µM	–	2.65e-05 M	6.27e-06 M	6.09e-06 M	17 µM	3.94e-06 M	10.8 nM
Cc1cc2c(OCCCc3c(C(=O)O)n4c5c(cccc35)-c3c(C)nn(C)c3COCCCC4)cccc2cc1F (racemic) [Example 049, (rac)-7-{3-[(6-fluoro-7-methylnaphthalen-1-yl)oxy]propyl}-1,3-dimethyl-1,10,11,12,13,15-hexahydropyrazolo[4′,3′:9,10][1,6]oxazacycloundecino[8,7,6-hi]indole-8-carboxylic Acid]	3.14e-05 M	14.2 µM	–	1.57e-05 M	1.1e-05 M	1.13e-05 M	> 33 µM	6.98e-06 M	3.18 nM
Cn1nc2c(c1CN1CCOCC1)-c1cccc3c(CCCOc4cccc5ccccc45)c(C(=O)O)n(c13)CCOCCOC2 (racemic) [Example 087]	> 3.3e-05 M	> 33 µM	–	> 3.3e-05 M	> 3.3e-05 M	> 3.3e-05 M	> 33 µM	1.41e-05 M	97 nM
CCn1nc(C2CC2)c2c1COCCCCn1c(C(=O)O)c(CCCOc3cccc4ccccc34)c3cccc-2c31 (racemic) [Example 088, (rac)-3-Cyclopropyl-1-ethyl-7-[3-(naphthalen-1-yloxy)propyl]-1,10,11,12,13,15-hexahydropyrazolo[4′,3′:9,10][1,6]oxazacycloundecino[8,7,6-hi]indole-8-carboxylic Acid]	> 3.3e-05 M	13.5 µM	–	2.35e-05 M	1.76e-05 M	1.1e-05 M	> 33 µM	2.67e-05 M	6.94 nM
Cc1c2c(nn1C1CC1)COCCCCn1c(C(=O)O)c(CCCOc3cccc4ccccc34)c3cccc-2c31 (racemic) [Example 092, (rac)-2-cyclopropyl-3-methy-7-[3-(naphthalen-1-yloxy)propyl]-2,10,11,12,13,15-hexahydropyrazolo[4′,3′:9,10][1,6]oxazacycloundecino[8,7,6-hi]indole-8-carboxylic Acid]	2.23e-05 M	6.16 µM	–	2.48e-05 M	8.25e-06 M	6.75e-06 M	20.2 µM	2.06e-06 M	7.08 nM
Cc1nn(CC(F)(F)F)c2c1-c1cccc3c(CCCOc4cccc5ccccc45)c(C(=O)O)n(c13)C/C=C\COC2 (racemic) [Example 098, (rac)-(11Z)-3-methyl-7-[3-(naphthalen-1-yloxy)propyl]-12-(2,2,2-trifluoroethyl)-1,10,13,15-tetrahydropyrazolo[4′,3′:9,10][1,6]oxazacycloundecino[8,7,6-hi]indole-8-carboxylic Acid]	> 3.3e-05 M	> 33 µM	–	2.09e-05 M	2.74e-05 M	2.94e-05 M	> 33 µM	1.15e-05 M	82.7 nM
COCc1c2c(nn1C)COCCCCn1c(C(=O)O)c(CCCOc3cccc4ccccc34)c3cccc-2c31 (racemic) [Example 099, (rac)-3-(methoxymethyl)-2-methyl-7-[3-(naphthalen-1-yloxy)propyl]-2,10,11,12,13,15-hexahydropyrazolo[4′,3′:9,10][1,6]oxazacycloundecino[8,7,6-hi]indole-8-carboxylic Acid]	1.75e-05 M	5.2 µM	–	2.11e-05 M	8.47e-06 M	3.86e-06 M	12.8 µM	1.08e-05 M	4.3 nM
COCc1c2c(nn1C)COCCCCn1c(C(=O)O)c(CCCOc3cccc4c3CCCC4)c3cccc-2c31 (racemic) [Example 105, (rac)-3-(methoxymethyl)-2-methyl-7-[3-(5,6,7,8-tetrahydronaphthalen-1-yloxy)propyl]-2,10,11,12,13,15-hexahydropyrazolo[4′,3′:9,10][1,6]oxazacycloundecino[8,7,6-hi]indole-8-carboxylic Acid]	1.92e-05 M	8.27 µM	–	1.49e-05 M	1.01e-05 M	7.19e-06 M	23.9 µM	9.89e-06 M	2.68 nM
CCNCc1nn(C)c2c1-c1cccc3c(CCCOc4cccc5ccccc45)c(C(=O)O)n(c13)CCCCOC2 (racemic) [Example 156, (rac)-3-[(ethylamino)methyl]-1-methyl-7-[3-(naphthalen-1-yloxy)propyl]-1,10,11,12,13,15-hexahydropyrazolo[4′,3′:9,10][1,6]oxazacycloundecino[8,7,6-hi]indole-8-carboxylic Acid]	> 3.3e-05 M	> 33 µM	–	> 3.3e-05 M	> 3.3e-05 M	> 3.3e-05 M	> 33 µM	2.23e-05 M	152 nM
CN1CCCn2c(C(=O)O)c(CCCOc3cccc4ccccc34)c3cccc(c32)-c2c(CN3CCOCC3=O)nn(C)c2C1 (racemic) [Example 157, (rac)-7,9-dimethyl-1-[3-(naphthalen-1-yloxy)propyl]-11-[(3-oxomorpholin-4-yl)methyl]-4,5,6,7,8,9-hexahydropyrazolo[3′,4′:7,8][1,5]diazecino[9,10,1-hi]indole-2-carboxylic Acid]	> 3.3e-05 M	> 33 µM	–	> 3.3e-05 M	> 3.3e-05 M	> 3.3e-05 M	> 33 µM	> 3.3e-05 M	289 nM
Cc1nn(CC(F)(F)F)c2c1-c1cccc3c(CCCOc4cccc5c4CCCC5)c(C(=O)O)n(c13)CCCCOC2 (racemic) [Example 161, (rac)-3-methyl-7-[3-(5,6,7,8-tetrahydronaphthalen-1-yloxy)propyl]1-(2,2,2-trifluoroethyl)-1,10,11,12,13,15-hexahydropyrazolo[4′,3′:9,10][1,6]oxazacycloundecino[8,7,6-hi]indole-8-carboxylic Acid]	> 3.3e-05 M	15 µM	–	1.62e-05 M	1.36e-05 M	1.06e-05 M	> 33 µM	1.26e-05 M	52.1 nM
